This passage reports IC50 and residual activity results from ChEMBL document CHEMBL1156915, “Synthesis of new thienyl ring containing HIV-1 protease inhibitors: promising preliminary pharmacological evaluation against recombinant HIV-1 proteases” (J Med Chem, 2010).

The target of assay [1] is Protease (Human immunodeficiency virus 1, UniProt Q9YQ12). Description: Inhibition of recombinant wild type HIV1 protease assessed as hydrolysis of fluorogenic substrate.
Assay [2] has as its target Protease (Human immunodeficiency virus 1) (UniProt Q9YQ12). As to the kind of experiment: Inhibition of recombinant wild type HIV1 protease assessed as residual activity at 1 nM by fluorogenic substrate assay; values are per cent of control.
Assay [3] concerns Human immunodeficiency virus type 1 protease (Human immunodeficiency virus 1), Q72874 [V82A]. As to the kind of experiment: Inhibition of recombinant HIV1 protease V82A mutant assessed as residual activity at 1 nM by fluorogenic substrate assay; values are per cent of control.
In assay [4] the target is Protease (Human immunodeficiency virus 1) (UniProt Q9YQ12). As to the kind of experiment: Inhibition of recombinant HIV1 protease assessed as residual activity at 10 nM by fluorogenic substrate assay; values are per cent of control.
Chain of Protease (Human immunodeficiency virus 1) (Q9YQ12 as listed by the source): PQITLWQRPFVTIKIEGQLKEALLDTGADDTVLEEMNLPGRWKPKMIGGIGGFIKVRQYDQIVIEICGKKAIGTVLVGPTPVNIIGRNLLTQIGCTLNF
For assay [5], the system named is Human immunodeficiency virus type 1 protease (Human immunodeficiency virus 1), Q72874 [V32I]. As to the kind of experiment: Inhibition of recombinant HIV1 protease V32I mutant assessed as residual activity at 1 nM by fluorogenic substrate assay; values are per cent of control.
For assay [6] the test system is unchanged. Description: Inhibition of recombinant HIV1 protease V32I mutant assessed as residual activity at 10 nM by fluorogenic substrate assay; values are per cent of control.

Chain of Protease (Q9YQ12 whole entry): as the sequence (Q9YQ12 as listed by the source) above

Turning to `CC(C)(C)NC(=O)[C@@H]1C[C@@H]2CCCC[C@@H]2CN1C[C@@H](O)[C@H](Cc1cccs1)NC(=O)C(CC(N)=O)NC(=O)c1ccc2ccccc2n1` (single isomer, unassigned), the IC50 in assay [1] was 21 nM.

Consider `Cc1c(O)cccc1C(=O)N[C@@H](CSc1ccccc1)[C@H](O)CN1C[C@H]2CCCC[C@H]2C[C@H]1C(=O)NC(C)(C)C`, for which the IC50 in assay [1] came out at 1.9 nM.

Take `CC(C)(C)NC(=O)[C@@H]1C[C@@H]2CCCC[C@@H]2CN1C[C@@H](O)[C@H](Cc1cc(-c2ccccc2)cs1)NC(=O)C(CC(N)=O)NC(=O)c1ccc2ccccc2n1` (single isomer, unassigned): the IC50 in assay [1] came to 1.2 nM.

Regarding `Cc1c(O)cccc1C(=O)N[C@@H](c1cccs1)[C@H](O)CN1C[C@H]2CCCC[C@H]2C[C@H]1C(=O)NC(C)(C)C`, in assay [1], the IC50 is 30000 nM.

For `CC(C)(C)NC(=O)[C@@H]1C[C@@H]2CCCC[C@@H]2CN1C[C@@H](O)[C@@H](NC(=O)[C@H](CC(N)=O)NC(=O)c1ccc2ccccc2n1)c1cccs1`, the IC50 in assay [1] turned out to be 5000 nM.

`CC(C)(C)NC(=O)[C@@H]1C[C@@H]2CCCC[C@@H]2CN1C[C@@H](O)[C@H](Cc1cc2ccccc2s1)NC(=O)C(CC(N)=O)NC(=O)c1ccc2ccccc2n1` (single isomer, unassigned): the IC50 in assay [1] stood at 0.6 nM. Further, the figures for the residual activity in assay [2] and in assay [3] were 53% and 37%, respectively.

For the compound `Cc1c(O)cccc1C(=O)N[C@@H](c1cc(-c2ccccc2)cs1)[C@H](O)CN1C[C@H]2CCCC[C@H]2C[C@H]1C(=O)NC(C)(C)C`, the IC50 in assay [1] worked out at 4000 nM.

On to `CC(C)(C)NC(=O)[C@@H]1C[C@@H]2CCCC[C@@H]2CN1C[C@@H](O)[C@@H](NC(=O)[C@H](CC(N)=O)NC(=O)c1ccc2ccccc2n1)c1cc(-c2ccccc2)cs1`, for which, in assay [1], the IC50 stood at 1500 nM.

For `Cc1c(O)cccc1C(=O)N[C@@H](Cc1cccs1)[C@H](O)CN1C[C@H]2CCCC[C@H]2C[C@H]1C(=O)NC(C)(C)C`, the IC50 in assay [1] is 2.9 nM. The residual activity turned out to be 5% in assay [4]; 34% in assay [2]; 97% in assay [5]; 60% in assay [3]; 32% in assay [6].

`Cc1c(O)cccc1C(=O)N[C@@H](Cc1cc2ccccc2s1)[C@H](O)CN1C[C@H]2CCCC[C@H]2C[C@H]1C(=O)NC(C)(C)C`: in assay [1], the half-inhibitory concentration (IC50) came to 15 nM.

As for `Cc1c(O)cccc1C(=O)N[C@@H](Cc1cc(-c2ccccc2)cs1)[C@H](O)CN1C[C@H]2CCCC[C@H]2C[C@H]1C(=O)NC(C)(C)C`, the 50% inhibitory concentration (IC50) in assay [1] was 6 nM.

Broadly, the IC50 is the concentration needed to halve the response being measured. As usually defined, the residual activity is the signal under treatment as a percentage of the control signal.
